Results reported in patent publication US20170121315A1, “HETEROBICYCLICALLY SUBSTITUTED 4-OXOBUTANE ACID DERIVATIVES AND USE THEREOF” (priority 2014, published 2017).

Tests used:
Format in all cases: biochemical
MMP-10 = target: T1, MMP-10 (Homo sapiens, UniProt P09238); assay: In vitro MMP-10 inhibition test; conditions: human MMP-10
T1 construct: purchased R&D Systems 910-MP
Summary of the method: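 APMA-activated recombinant MMP-10 (e.g. 2 nM final) with compound in Tris/HCl pH 7.5, CaCl2, NaCl, Brij-35 buffer; reaction started with quenched Mca/Dnp peptide substrate (e.g. 10 μM final). Fluorescence (ex 320/em 410 nm) followed e.g. 120 min at 32 °C; IC50 at 50% signal.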

MMP-3 = target: T2, MMP-3 (Homo sapiens, UniProt P08254); assay: In vitro MMP-3 inhibition test; conditions: human MMP-3
T2 construct: purchased R&D Systems 513-MP
T2 sequence (P08254 100-477): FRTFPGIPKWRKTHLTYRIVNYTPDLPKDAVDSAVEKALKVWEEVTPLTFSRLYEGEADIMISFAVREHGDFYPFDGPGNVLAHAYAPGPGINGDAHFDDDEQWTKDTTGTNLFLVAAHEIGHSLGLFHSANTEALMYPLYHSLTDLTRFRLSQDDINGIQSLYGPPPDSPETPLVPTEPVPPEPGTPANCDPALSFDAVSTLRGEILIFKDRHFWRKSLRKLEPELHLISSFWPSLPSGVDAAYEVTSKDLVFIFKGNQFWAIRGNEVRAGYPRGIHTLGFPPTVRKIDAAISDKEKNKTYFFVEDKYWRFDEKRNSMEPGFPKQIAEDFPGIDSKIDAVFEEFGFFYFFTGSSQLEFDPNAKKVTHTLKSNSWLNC
Summary of the method: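 APMA-activated recombinant MMP-3 (e.g. 2 nM final) with compound in Tris/HCl pH 7.5, CaCl2, NaCl, Brij-35; reaction started with quenched Mca/Dnp peptide substrate (e.g. 10 μM final). Fluorescence (ex 320/em 410 nm) followed e.g. 120 min at 32 °C; IC50 is concentration giving 50% signal.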

[1] = target: T3, human macrophage elastase (HME/hMMP-12) (Homo sapiens, UniProt P39900); assay: In vitro HME inhibition test (standard or high-sensitivity); conditions: in some cases mean values, rounded to two significant figures
T3 construct: purchased R&D Systems 917-MP
T3 sequence (P39900 106-470): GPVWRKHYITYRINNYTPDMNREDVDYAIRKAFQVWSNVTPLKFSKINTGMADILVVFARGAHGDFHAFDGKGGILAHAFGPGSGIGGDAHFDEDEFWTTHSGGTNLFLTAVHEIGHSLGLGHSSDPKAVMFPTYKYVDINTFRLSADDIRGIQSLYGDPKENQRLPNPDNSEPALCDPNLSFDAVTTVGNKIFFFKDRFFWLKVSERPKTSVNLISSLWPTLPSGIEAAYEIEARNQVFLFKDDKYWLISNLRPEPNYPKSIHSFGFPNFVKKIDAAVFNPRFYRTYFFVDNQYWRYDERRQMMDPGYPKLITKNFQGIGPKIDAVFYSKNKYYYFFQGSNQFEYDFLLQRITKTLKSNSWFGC
Summary of the method: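 Autoactivated HME (0.5 nM; high-sensitivity format 0.05 nM, ~16 h) with 5 μM quenched Mca-PLGLEEA-Dap(Dnp)-NH2 substrate in HEPES pH 7.4, NaCl, CaCl2, ZnCl2, EDTA, Brij buffer, 2 h at 37° C. Fluorescence at ex 323/em 393 nm; IC50 from signal versus concentration.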

MMP-8 = target: T4, MMP-8 (Homo sapiens, UniProt P22894); assay: In vitro MMP-8 inhibition test; conditions: human MMP-8
T4 construct: purchased R&D Systems 908-MP
T4 sequence (P22894 101-467): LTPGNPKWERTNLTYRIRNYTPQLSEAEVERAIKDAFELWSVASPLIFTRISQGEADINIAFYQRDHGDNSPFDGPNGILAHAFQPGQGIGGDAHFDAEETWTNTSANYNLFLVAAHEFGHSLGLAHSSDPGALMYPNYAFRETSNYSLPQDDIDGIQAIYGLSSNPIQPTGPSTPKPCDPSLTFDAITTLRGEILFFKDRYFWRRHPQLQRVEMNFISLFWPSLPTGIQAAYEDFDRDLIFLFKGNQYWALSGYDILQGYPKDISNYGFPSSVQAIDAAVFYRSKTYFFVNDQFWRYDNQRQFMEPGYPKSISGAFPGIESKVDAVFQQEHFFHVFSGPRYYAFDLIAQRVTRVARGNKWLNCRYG
Summary of the method: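 Recombinant APMA-activated MMP-8 (e.g. 0.5 nM final) incubated with compound in 50 mM Tris/HCl pH 7.5, 10 mM CaCl2, 150 mM NaCl, 0.05% Brij-35. Reaction started with quenched Mca-PLGL-Dpa(Dnp)-AR-NH2 substrate (e.g. 10 μM final); fluorescence (ex 320/em 410 nm) followed e.g. 120 min at 32 °C; IC50 at 50% signal.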

MMP-16 = target: T5, MMP-16 (Homo sapiens, UniProt P51512); assay: In vitro MMP-16 inhibition test; conditions: human MMP-16
T5 construct: purchased R&D Systems 1785-MP
T5 sequence (P51512 120-564 limits assumed): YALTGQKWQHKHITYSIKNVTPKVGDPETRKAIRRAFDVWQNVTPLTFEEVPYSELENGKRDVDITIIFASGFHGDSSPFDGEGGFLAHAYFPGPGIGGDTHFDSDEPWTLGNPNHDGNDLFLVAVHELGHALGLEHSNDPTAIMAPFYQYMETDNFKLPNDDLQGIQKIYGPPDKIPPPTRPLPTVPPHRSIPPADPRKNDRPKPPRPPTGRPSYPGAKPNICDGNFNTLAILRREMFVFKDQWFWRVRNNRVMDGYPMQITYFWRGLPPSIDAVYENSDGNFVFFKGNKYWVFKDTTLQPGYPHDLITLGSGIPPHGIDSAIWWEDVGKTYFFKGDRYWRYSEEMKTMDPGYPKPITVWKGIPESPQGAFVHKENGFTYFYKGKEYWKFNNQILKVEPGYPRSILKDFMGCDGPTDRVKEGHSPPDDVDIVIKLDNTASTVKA
Summary of the method: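 Furin-activated recombinant MMP-16 (e.g. 1 nM final) with compound (e.g. 1 nM–30 μM, DMSO) in 50 mM Tris/HCl pH 7.5, 10 mM CaCl2, 150 mM NaCl, 0.05% Brij-35. Reaction started with quenched Mca-Lys-Pro-Leu-Gly-Leu-Dpa(Dnp)-Ala-Arg-NH2 (e.g. 5 μM) and read by fluorescence (ex 320/em 410 nm), e.g. over 120 min at 32 °C. IC50 taken at 50% signal.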

T1 sequence (P09238 99-476): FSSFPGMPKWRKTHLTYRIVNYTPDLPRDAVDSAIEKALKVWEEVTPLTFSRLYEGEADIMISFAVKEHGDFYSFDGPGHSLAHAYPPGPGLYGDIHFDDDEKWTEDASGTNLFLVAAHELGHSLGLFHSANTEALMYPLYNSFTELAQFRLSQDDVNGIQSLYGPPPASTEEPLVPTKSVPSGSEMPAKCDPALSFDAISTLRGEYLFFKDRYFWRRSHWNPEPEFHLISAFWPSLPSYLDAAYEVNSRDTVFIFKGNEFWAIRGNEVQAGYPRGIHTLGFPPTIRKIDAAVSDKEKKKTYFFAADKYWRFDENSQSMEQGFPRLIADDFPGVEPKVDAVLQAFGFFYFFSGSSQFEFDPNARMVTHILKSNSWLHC

Row | Structure (SMILES) | IC50 (MMP-10) [µM] | IC50 (MMP-3) [µM] | IC50 [1] [pM] | IC50 (MMP-8) [µM] | IC50 (MMP-16) [µM]
1 | O=C(CC(CCn1nnc2ccccc2c1=O)C(=O)O)c1noc2cc(OCc3ccccc3)ccc12 (racemic) [Example 145, (+/−)-4-[6-(Benzyloxy)-1,2-benzoxazol-3-yl]-4-oxo-2-[2-(4-oxo-1,2,3-benzotriazin-3(4H)-yl)ethyl]butanoic acid] | 10 | 8.9 | 710 | 2.8 | 25
2 | CCCCCOc1ccc2c(C(=O)CC(CCn3nnc4ccccc4c3=O)C(=O)O)coc2c1 (single isomer, unassigned) [Example 91, 4-Oxo-2-[2-(4-oxo-1,2,3-benzotriazin-3(4H)-yl)ethyl]-4-[6-(pentyloxy)-1-benzofur-3-yl]butanoic acid] | 4.7 | 17 | 230 | 0.94 | 13
3 | O=C(O)[C@@H]1[C@@H](Cn2nnc3ccc(C(F)(F)F)cc3c2=O)CC[C@H]1C(=O)c1cc2cc(OCCc3ccccc3)ccc2o1 (single isomer, unassigned; enantiomer 2) [Example 159, (+)-(1RS,2SR,5RS)-2-{[4-Oxo-6-(trifluoromethyl)-1,2,3-benzotriazin-3(4H)-yl]methyl}-5-{[5-(2-phenylethoxy)-1-benzofur-2-yl]carbonyl}cyclopentanecarboxylic acid (enantiomer 2)] | 0.34 | 2.2 | 63 | 0.31 | 3
